Assay results reported in PubChem BioAssay AID292 (DTP/NCI, 2004).
Values joined by “and” are separate entries in the source; they are usually repeats but may differ in a detail not shown here. Equal values may be shown once. Inconclusive results and toxic doses are left out. How the source made its calls: active means survival T/C of 150% or more; inactive means T/C below 125% in these data.

Test system: B6C3F1 mice, ip Sarcoma M5076, median survival T/C
Assay: NCI In Vivo Anticancer Drug Screen. Data for tumor model Sarcoma M5076 (intraperitoneal) in B6C3F1 mice
Settings: endpoint: median survival time, higher = longer survival
Method in brief: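 Transplantable tumour in mice; compound-treated vs vehicle-treated groups. Read-out: survival. Value = treated/control ratio.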

[1] = dose: 50.0 mg/kg/injection, schedule: Q04DX004 (ip), vehicle: Klucel (hydroxypropylcellulose) (HPC)
[2] = dose: 100.0 mg/kg/injection, schedule: Q04DX004 (ip), vehicle: Klucel (hydroxypropylcellulose) (HPC)
[3] = dose: 200.0 mg/kg/injection, schedule: Q04DX004 (ip), vehicle: Klucel (hydroxypropylcellulose) (HPC)
[4] = dose: 50.0 mg/kg/injection, schedule: Q04DX004 (ip), vehicle: saline with Tween-80

Measured: T/C

C[CH2][Sn]([Cl])([CH2]C)[c]1cc[c]([Sn]([Cl])([CH2]C)[CH2]C)cc1
inactive: dose: 0.06 mg/kg/injection, schedule: Q04DX004 (ip), vehicle: Klucel (hydroxypropylcellulose) (HPC) 102 % of control | dose: 0.12 mg/kg/injection, schedule: Q04DX004 (ip), vehicle: Klucel (hydroxypropylcellulose) (HPC) 89 % of control | dose: 0.25 mg/kg/injection, schedule: Q04DX004 (ip), vehicle: Klucel (hydroxypropylcellulose) (HPC) 91 % of control | dose: 0.5 mg/kg/injection, schedule: Q04DX004 (ip), vehicle: Klucel (hydroxypropylcellulose) (HPC) 101 % of control | dose: 90.0 micrograms/kg/injection, schedule: Q04DX004 (ip), vehicle: Klucel (hydroxypropylcellulose) (HPC) 106 % of control | dose: 150.0 micrograms/kg/injection, schedule: Q04DX004 (ip), vehicle: Klucel (hydroxypropylcellulose) (HPC) 96 % of control | dose: 250.0 micrograms/kg/injection, schedule: Q04DX004 (ip), vehicle: Klucel (hydroxypropylcellulose) (HPC) 100 % of control | dose: 416.7 micrograms/kg/injection, schedule: Q04DX004 (ip), vehicle: Klucel (hydroxypropylcellulose) (HPC) 98 % of control | dose: 694.5 micrograms/kg/injection, schedule: Q04DX004 (ip), vehicle: Klucel (hydroxypropylcellulose) (HPC) 107 % of control

CCCCCCCCCCCCN1C(C)=CS/C1=C\C=C\c1scc(C)[n+]1CCCCCCCCCCCC
inactive: dose: 0.75 mg/kg/injection, schedule: Q04DX004 (ip), vehicle: saline with Tween-80 119 % of control | dose: 1.5 mg/kg/injection, schedule: Q04DX004 (ip), vehicle: saline with Tween-80 116 % of control

CN(C)CN1C(=O)S/C(=C2\C(=O)N(CN(C)C)c3ccccc32)C1=O
inactive: [1] 102 % of control | [2] 90 % of control | [3] 90 % of control

CC[C@](O)(C(=O)O)c1cc2n(c(=O)c1CO)Cc1cc3ccccc3nc1-2
inactive: dose: 3.12 mg/kg/injection, schedule: Q04DX004 (ip), vehicle: saline 115 % of control | dose: 6.25 mg/kg/injection, schedule: Q04DX004 (ip), vehicle: saline 115 % of control and 123 % of control | dose: 12.5 mg/kg/injection, schedule: Q04DX004 (ip), vehicle: saline 119 % of control | dose: 25.0 mg/kg/injection, schedule: Q04DX004 (ip), vehicle: saline 123 % of control | dose: 50.0 mg/kg/injection, schedule: Q04DX004 (ip), vehicle: saline 114 % of control

COc1cc(N2C(=O)C(=O)C(C(C)=O)C2=O)c(OC)cc1Cl (stereo not given)
inactive: [1] 102 % of control | [2] 102 % of control | [3] 101 % of control | dose: 400.0 mg/kg/injection, schedule: Q04DX004 (ip), vehicle: Klucel (hydroxypropylcellulose) (HPC) 102 % of control

COc1ncc(Br)cc1C(=O)NCCc1ccc(S(=O)(=O)NC(=O)NC2CCCCC2)cc1
inactive: dose: 12.5 mg/kg/injection, schedule: Q04DX004 (ip), vehicle: saline with Tween-80 100 % of control | dose: 25.0 mg/kg/injection, schedule: Q04DX004 (ip), vehicle: saline with Tween-80 102 % of control | [4] 100 % of control

COc1cc2c(oc(=O)c3cc(C)cc(OC)c32)c2c(C3OC(C)C(O)C(C)(O)C3O)ccc(O)c12 (stereo not given)
inactive: dose: 3.12 mg/kg/injection, schedule: Q04DX004 (ip), vehicle: DMSO 106 % of control and 107 % of control | dose: 6.25 mg/kg/injection, schedule: Q04DX004 (ip), vehicle: DMSO 101 % of control and 109 % of control | dose: 12.5 mg/kg/injection, schedule: Q04DX004 (ip), vehicle: DMSO 101 % of control and 107 % of control | dose: 25.0 mg/kg/injection, schedule: Q04DX004 (ip), vehicle: DMSO 109 % of control and 112 % of control | dose: 50.0 mg/kg/injection, schedule: Q04DX004 (ip), vehicle: DMSO 103 % of control and 109 % of control

N#CC1C(=O)NC(=S)NC1c1ccc(C2CC(=O)NC(=S)N2)cc1 (stereo not given)
inactive: [4] 93 % of control | dose: 100.0 mg/kg/injection, schedule: Q04DX004 (ip), vehicle: saline with Tween-80 106 % of control | dose: 200.0 mg/kg/injection, schedule: Q04DX004 (ip), vehicle: saline with Tween-80 94 % of control | dose: 400.0 mg/kg/injection, schedule: Q04DX004 (ip), vehicle: saline with Tween-80 90 % of control | dose: 800.0 mg/kg/injection, schedule: Q04DX004 (ip), vehicle: saline with Tween-80 92 % of control

COc1cc2cc3c(c(O)c2c(O)c1/C=C/C(C)C)C(=O)CC(C)(OC(C)=O)C3 (stereo not given)
inactive: dose: 0.62 mg/kg/injection, schedule: Q01DX009 (ip), vehicle: Klucel (hydroxypropylcellulose) (HPC) 117 % of control | dose: 0.63 mg/kg/injection, schedule: Q01DX009 (ip), vehicle: Klucel (hydroxypropylcellulose) (HPC) 98 % of control and 104 % of control and 106 % of control | dose: 0.63 mg/kg/injection, schedule: Q04DX004 (ip), vehicle: Klucel (hydroxypropylcellulose) (HPC) 113 % of control | dose: 1.25 mg/kg/injection, schedule: Q04DX004 (ip), vehicle: Klucel (hydroxypropylcellulose) (HPC) 121 % of control | dose: 2.5 mg/kg/injection, schedule: Q04DX004 (ip), vehicle: Klucel (hydroxypropylcellulose) (HPC) 123 % of control | dose: 3.6 mg/kg/injection, schedule: Q04DX004 (ip), vehicle: Klucel (hydroxypropylcellulose) (HPC) 106 % of control | dose: 6.0 mg/kg/injection, schedule: Q04DX004 (ip), vehicle: Klucel (hydroxypropylcellulose) (HPC) 110 % of control | dose: 10.0 mg/kg/injection, schedule: Q04DX004 (ip), vehicle: Klucel (hydroxypropylcellulose) (HPC) 118 % of control | dose: 16.67 mg/kg/injection, schedule: Q04DX004 (ip), vehicle: Klucel (hydroxypropylcellulose) (HPC) 117 % of control
